# Results as given in patent publication US20170100489A1, “POLYETHYLENE GLYCOL-MODIFIED INTEGRIN BLOCKER HM-3 AND USE THEREOF” (HANMEI XU, priority 2012, published 2017).
# Read-outs that look alike come from different tables or passages of the source. Marks after values point to notes of the source that are not given here. Where no end group is shown, it is not given here. mPEG‑SC20k = methoxy polyethylene glycol-succinimidyl-carbonate, 20000 Da
# Experiments:
# [1] = test system: human ovarian cancer SK-OV-3 xenograft tumors; test: Tumor growth inhibition, SK-OV-3 xenograft; settings: for Rate of inhibiting tumors / Tumor weight: Once 3 days
# Method: Human ovarian cancer SK-OV-3 cell lines in logarithmic growth phase were picked, and made into 5×10^7/ml cell suspension of under sterile conditions, and then 0.1 ml suspension was inoculated subcutaneously at the right armpit of nude mice. Tumor diameter was measured with a vernier caliper. The animals which had tumors with a size of 100-200 mm^3 were randomly divided into groups. The effect of polypeptide on anti-tumor was dynamically observed through the method of measuring tumor diameter. The times of measuring tumor diameter were once 2 days, and meantime, weighed mice. The mice in experimental group were infused polypeptide through tail vein. The mice in the placebo group were injected saline with the same volume, once 1 day; Cisplatin group: 10 mg/kg, once 1 week; Endostar group: 2.5 mg/kg, once 1 day; The groups of high, intermediate and low polypeptide: 6, 3, 1.5 mg/kg, respectively, once 1 day. After administration, all mice were sacrificed. Stripped the tumors and weighed.
# [2] = test system: human kidney cancer A498 xenograft tumors; test: Tumor growth inhibition, A498 xenograft; settings: for Rate of inhibiting tumors / Tumor weight: Once 3 days
# Method: Human kidney cancer A498 cell lines in logarithmic growth phase were picked and made into 5×10^7/ml cell suspension of under sterile conditions, and then 0.1 ml suspension was inoculated subcutaneously at the right armpit of nude mice. Tumor diameter was measured with a vernier caliper. The animals which had tumors with a size of 100-200 mm^3 were randomly divided into groups. The effect of polypeptide on anti-tumor was dynamically observed through the method of measuring tumor diameter. The times of measuring tumor diameter were once 2 days, and meantime, weighed mice. The mice in experimental group were infused polypeptide through tail vein. The mice in the placebo group were injected saline with the same volume, once 1 day; Taxol group: 10 mg/kg, once 1 week; Endostar group: 2.5 mg/kg, once 1 day; The groups of high, intermediate and low polypeptide: 6, 3, 1.5 mg/kg, respectively, once 1 day. After administration, all mice were sacrificed. Stripped the tumors and weighed.
# [3] = Pharmacokinetics of mPEG-SC20k-HM-3 and HM-3 in rats (plasma concentration by ELISA); settings: SD rats, intravenous
# Method: (§2) SD rats were randomly divided into six groups with the same number for male and female. Take three groups were administered intravenously integrin antagonist polypeptide with a high dose of 52 mg/kg (equivalent to HM-3 4.2 mg/kg), an intermediate dose of 26 mg/kg (equivalent to HM-3 2.1 mg/kg), a low-dose of 13 mg/kg (equivalent to HM-3 1.05 mg/kg). The other 3 groups were injected HM-3 with a high dose of 4.2 mg/kg, an intermediate dose of 2.1 mg/kg, a low doses of 1.05 mg/kg. Collected whole blood 0.5 ml once from the orbital venous plexus after 0.5 h, 1 h, 2 h, 3 h, 6 h, 12 h, 24 h, 48 h, 72 h, 96 h, 108 h, 132 h of drug administration, and applied heparin to get the effect of anti-coagulation. 12000 rpm/2 min centrifuged plasma. Draw supernatant 200 μl and 80° C. preheated PBS (0.05 M pH7.4) buffer 600 μl and mixed. Bath in the 80° C. water for 30 min. Centrifuged 2 min at 12000 rpm, and collected the supernatant, and stored in the condition of −20° C. Dissolved at room temperature, measured integrin antagonist peptide plasma concentration by ELISA.
# [4] = test system: human esophageal cancer Ec109 xenograft tumors; type: in vivo, nude mice; settings: for Rate of inhibiting tumors / Tumor weight: Once 3 days
# Method: Tumor diameter was measured with a vernier caliper. […] Tumor volume formula: […]
# a, b respectively represent the length and width. […] The formula is as follows: […]
# TRTV: Treatment Group RTV; CRTV: Negative Control Group RTV
# integrin ανβ3 = target: T1, integrin ανβ3 (Homo sapiens, UniProt P05106+P06756); test: Combination with targets through flow cytometry (FITC labeled polypeptide, function-blocking antibody); type: binding; settings: Bel-7402 and MCF-7 cells, 2 mg/ml, FIG. 1
# T1 construct: Bel-7402 tumor cells and MCF-7 fusion cultured to 80%; endogenous in cells; host or cells: Bel-7402 and MCF-7 tumor cells
# Method: (§1) • (1) Bel-7402 tumor cells and MCF-7 fusion cultured to 80% after the 24-well plate, trypsinized collected, washed with ice-cold PBS twice, the cells were labeled prior containing 1% BSA resuspended in PBS 30 min. • (2) 2 μl mouse anti-human ανβ3 function-blocking monoclonal antibody (1.0 μg/μl, 1:200), mouse anti-human 2 μl α5β1 function-blocking monoclonal antibody (1.0 μg/μl, 1:200) and the cell suspension were incubated at 4° C. 1.5 h. • (3) collected the labeled cells and washed with ice-cold PBS twice, followed by 100 μl FITC labeled polypeptide modified mPEG-SC20k-HM-3 (2 mg/ml) and the cell suspension were incubated at 4° C. incubate 1.5 h • (4) After labeled, the cells were collected and washed with ice-cold PBS 2 times, followed by resuspension with 400 μl PBS and analyzed by flow cytometry, and detected intensity of the FITC fluorescence through channel FL1.
# integrin α5β1 = target: T2, integrin α5β1 (Homo sapiens, UniProt P05556+P08648); test: as above; type: binding; settings: Bel-7402 and MCF-7 cells, 2 mg/ml, FIG. 1
# T2 construct: Bel-7402 tumor cells and MCF-7 fusion cultured to 80%; endogenous in cells; host or cells: Bel-7402 and MCF-7 tumor cells
# Method: as §1
# [5] = test system: human pancreatic cancer SW-1990 xenograft tumors; test: Tumor growth inhibition, SW-1990 xenograft; settings: for Rate of inhibiting tumors / Tumor weight: Once 3 days
# Method: Picked the tumor tissue of vigorous growth and was cut into pieces of about 1.5 mm^3. Under sterile conditions, the tumor tissue was inoculated subcutaneously on the right of nude mice. Tumor diameter was measured with a Vernier caliper. The animals which had tumors with a size of 100-200 mm^3 were randomly divided into groups. The effect of polypeptide on anti-tumor was dynamically observed through the method of measuring tumor diameter. The times of measuring tumor diameter were once 2 days, and meantime, weighed mice. The mice in experimental group were infused polypeptide through tail vein, once 3 days. The mice in the placebo group were injected saline with the same volume.
# a, b respectively represent the length and width. According to the result of measurement, calculate the relative tumor volume. Evaluation of antitumor activity is relative tumor proliferation rate T/C(%). The formula is as follows: T/C(%)^=TRTV/CRTV×100%
# TRTV:Treatment group RTV; CRTV: negative control group RTV
# [6] = test system: human endometrial cancer HHUA xenograft tumors; test: Tumor growth inhibition, HHUA xenograft; settings: for Rate of inhibiting tumors / Tumor weight: Once 3 days
# Method: Human endometrial cancer HHUA cell lines in logarithmic growth phase were picked, and made into 5×10^7/ml cell suspension of under sterile conditions, and then 0.1 ml suspension was inoculated subcutaneously at the right armpit of nude mice. Tumor diameter was measured with a vernier caliper. The animals which had tumors with a size of 100-200 mm^3 were randomly divided into groups. The effect of polypeptide on anti-tumor was dynamically observed through the method of measuring tumor diameter. The times of measuring tumor diameter were once 2 days, and meantime, weighed mice. The mice in experimental group were infused polypeptide through tail vein. The mice in the placebo group were injected saline with the same volume, once 1 day; Taxol group: 10 mg/kg, once 1 week; Endostar group: 2.5 mg/kg, once 1 day; The groups of high, intermediate and low polypeptide: 6, 3, 1.5 mg/kg, respectively, once 1 day. After administration, all mice were sacrificed. Stripped the tumors and weighed.
# [7] = rat, in vivo, iv
# Method: as §2
# [8] = test system: human bladder cancer HT1376 xenograft tumors; test: Tumor growth inhibition, HT1376 xenograft; settings: for Rate of inhibiting tumors / Tumor weight: Once 3 days
# Method: Human bladder cancer HT1376 cell lines in logarithmic growth phase were picked, and made into 5×10^7/ml cell suspension of under sterile conditions, and then 0.1 ml suspension was inoculated subcutaneously at the right armpit of nude mice. Tumor diameter was measured with a vernier caliper. The animals which had tumors with a size of 100-200 mm^3 were randomly divided into groups. The effect of polypeptide on anti-tumor was dynamically observed through the method of measuring tumor diameter. The times of measuring tumor diameter were once 2 days, and meantime, weighed mice. The mice in experimental group were infused polypeptide through tail vein. The mice in the placebo group were injected saline with the same volume, once 1 day; Taxol group: 10 mg/kg, once 1 week; Endostar group: 2.5 mg/kg, once 1 day; The groups of high, intermediate and low polypeptide: 6, 3, 1.5 mg/kg, respectively, once 1 day. After administration, all mice were sacrificed. Stripped the tumors and weighed.
# [9] = test system: human testicular cancer 5637 xenograft tumors; test: Tumor growth inhibition, 5637 xenograft; settings: for Rate of inhibiting tumors / Tumor weight: Once 3 days
# Method: Human testicular cancer 5637 cell lines in logarithmic growth phase were picked, and made into 5×10^7/ml cell suspension of under sterile conditions, and then 0.1 ml suspension was inoculated subcutaneously at the right armpit of nude mice. Tumor diameter was measured with a vernier caliper. The animals which had tumors with a size of 100-200 mm^3 were randomly divided into groups. The effect of polypeptide on anti-tumor was dynamically observed through the method of measuring tumor diameter. The times of measuring tumor diameter were once 2 days, and meantime, weighed mice. The mice in experimental group were infused polypeptide through tail vein. […] After administration, all mice were sacrificed. Stripped the tumors and weighed.
# [10] = test system: human colon cancer HT-29 xenograft tumors; test: Tumor growth inhibition, HT-29 xenograft; settings: for Rate of inhibiting tumors / Tumor weight: Once 3 days
# Method: Human colon cancer HT-29 cell lines in logarithmic growth phase were picked, and made into 5×10^7/ml cell suspension of under sterile conditions, and then 0.1 ml suspension was inoculated subcutaneously at the right armpit of nude mice. Tumor diameter was measured with a vernier caliper. The animals which had tumors with a size of 100-200 mm^3 were randomly divided into groups. The effect of polypeptide on anti-tumor was dynamically observed through the method of measuring tumor diameter. The times of measuring tumor diameter were once 2 days, and meantime, weighed mice. The mice in experimental group were infused polypeptide through tail vein. The mice in the placebo group were injected saline with the same volume, once 1 day; Taxol group: 10 mg/kg, once 1 week; Endostar group: 2.5 mg/kg, once 1 day; The groups of high, intermediate and low polypeptide: 6, 3, 1.5 mg/kg, respectively, once 1 day. After administration, all mice were sacrificed. Stripped the tumors and weighed.
# [11] = test system: human gallbladder cancer GBC-SD xenograft tumors; test: Tumor growth inhibition, GBC-SD xenograft; settings: for Rate of inhibiting tumors / Tumor weight: Once 3 day
# Method: Human gallbladder cancer GBC-SD cell lines in logarithmic growth phase were picked and made into 5×10^7/ml cell suspension of under sterile conditions, and then 0.1 ml suspension was inoculated subcutaneously at the right armpit of nude mice. Tumor diameter was measured with a vernier caliper. The animals which had tumors with a size of 100-200 mm^3 were randomly divided into groups. The effect of polypeptide on anti-tumor was dynamically observed through the method of measuring tumor diameter. The times of measuring tumor diameter were once 2 days, and meantime, weighed mice. The mice in experimental group were infused polypeptide through tail vein. The mice in the placebo group were injected saline with the same volume, once 1 day; Taxol group: 10 mg/kg, once 1 week; Endostar group: 2.5 mg/kg, once 1 day; The groups of high, intermediate and low polypeptide: 6, 3, 1.5 mg/kg, respectively, once 1 day. After administration, all mice were sacrificed. Stripped the tumors and weighed.
# [12] = high, 36.7 mg/kg, listed as polypeptide
# [13] = intermediate, 18.75 mg/kg, listed as polypeptide
# [14] = low, 9.38 mg/kg, listed as polypeptide
# T2 sequence (P08648 42-894 limits assumed): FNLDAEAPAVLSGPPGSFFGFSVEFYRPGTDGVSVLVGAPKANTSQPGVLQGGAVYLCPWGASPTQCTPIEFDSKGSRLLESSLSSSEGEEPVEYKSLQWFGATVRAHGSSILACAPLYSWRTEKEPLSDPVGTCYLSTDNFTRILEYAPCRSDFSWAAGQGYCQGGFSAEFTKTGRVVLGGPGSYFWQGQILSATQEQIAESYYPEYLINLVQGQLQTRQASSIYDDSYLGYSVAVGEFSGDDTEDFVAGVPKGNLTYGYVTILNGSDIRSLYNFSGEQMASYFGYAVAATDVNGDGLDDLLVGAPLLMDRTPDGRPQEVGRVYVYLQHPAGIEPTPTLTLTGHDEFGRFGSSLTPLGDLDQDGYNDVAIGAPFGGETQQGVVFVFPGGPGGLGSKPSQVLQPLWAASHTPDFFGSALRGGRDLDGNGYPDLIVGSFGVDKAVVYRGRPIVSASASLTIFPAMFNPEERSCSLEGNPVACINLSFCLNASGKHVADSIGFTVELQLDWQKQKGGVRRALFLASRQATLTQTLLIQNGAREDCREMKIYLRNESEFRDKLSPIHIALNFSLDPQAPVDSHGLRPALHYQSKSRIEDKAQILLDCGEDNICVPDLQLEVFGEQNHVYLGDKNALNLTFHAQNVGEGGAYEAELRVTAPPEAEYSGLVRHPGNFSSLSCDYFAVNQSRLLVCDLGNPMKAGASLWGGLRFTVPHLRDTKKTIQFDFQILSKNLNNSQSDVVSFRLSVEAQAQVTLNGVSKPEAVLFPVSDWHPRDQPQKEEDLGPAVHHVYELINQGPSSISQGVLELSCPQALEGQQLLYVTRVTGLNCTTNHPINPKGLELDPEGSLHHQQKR
# T2 sequence (P08648 895-1049 partner limits assumed): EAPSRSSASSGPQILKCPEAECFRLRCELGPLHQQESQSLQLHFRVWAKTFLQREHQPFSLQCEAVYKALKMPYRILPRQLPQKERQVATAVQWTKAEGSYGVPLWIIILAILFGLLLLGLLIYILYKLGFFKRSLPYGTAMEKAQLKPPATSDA
# T2 sequence (P05556 21-798): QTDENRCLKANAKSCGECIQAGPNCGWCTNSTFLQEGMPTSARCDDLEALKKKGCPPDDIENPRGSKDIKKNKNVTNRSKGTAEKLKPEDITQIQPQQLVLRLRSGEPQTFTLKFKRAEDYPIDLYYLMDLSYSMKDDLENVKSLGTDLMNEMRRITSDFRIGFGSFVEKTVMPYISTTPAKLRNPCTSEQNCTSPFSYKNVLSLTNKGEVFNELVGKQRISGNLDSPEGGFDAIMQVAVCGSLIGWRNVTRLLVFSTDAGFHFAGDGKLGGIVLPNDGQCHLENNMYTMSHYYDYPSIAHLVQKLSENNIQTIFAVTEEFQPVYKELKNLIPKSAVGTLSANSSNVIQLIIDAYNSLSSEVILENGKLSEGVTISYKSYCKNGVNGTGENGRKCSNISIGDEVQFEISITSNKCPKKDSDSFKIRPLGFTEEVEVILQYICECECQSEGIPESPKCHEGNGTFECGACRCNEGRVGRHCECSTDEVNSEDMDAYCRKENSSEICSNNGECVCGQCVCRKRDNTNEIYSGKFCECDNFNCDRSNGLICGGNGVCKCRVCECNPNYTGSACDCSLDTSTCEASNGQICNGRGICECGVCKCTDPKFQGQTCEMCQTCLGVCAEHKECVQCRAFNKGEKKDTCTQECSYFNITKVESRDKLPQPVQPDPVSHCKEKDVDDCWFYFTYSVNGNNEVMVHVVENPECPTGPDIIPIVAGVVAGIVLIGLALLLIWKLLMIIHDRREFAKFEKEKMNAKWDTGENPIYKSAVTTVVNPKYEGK
# T1 sequence (P06756 31-889 limits assumed): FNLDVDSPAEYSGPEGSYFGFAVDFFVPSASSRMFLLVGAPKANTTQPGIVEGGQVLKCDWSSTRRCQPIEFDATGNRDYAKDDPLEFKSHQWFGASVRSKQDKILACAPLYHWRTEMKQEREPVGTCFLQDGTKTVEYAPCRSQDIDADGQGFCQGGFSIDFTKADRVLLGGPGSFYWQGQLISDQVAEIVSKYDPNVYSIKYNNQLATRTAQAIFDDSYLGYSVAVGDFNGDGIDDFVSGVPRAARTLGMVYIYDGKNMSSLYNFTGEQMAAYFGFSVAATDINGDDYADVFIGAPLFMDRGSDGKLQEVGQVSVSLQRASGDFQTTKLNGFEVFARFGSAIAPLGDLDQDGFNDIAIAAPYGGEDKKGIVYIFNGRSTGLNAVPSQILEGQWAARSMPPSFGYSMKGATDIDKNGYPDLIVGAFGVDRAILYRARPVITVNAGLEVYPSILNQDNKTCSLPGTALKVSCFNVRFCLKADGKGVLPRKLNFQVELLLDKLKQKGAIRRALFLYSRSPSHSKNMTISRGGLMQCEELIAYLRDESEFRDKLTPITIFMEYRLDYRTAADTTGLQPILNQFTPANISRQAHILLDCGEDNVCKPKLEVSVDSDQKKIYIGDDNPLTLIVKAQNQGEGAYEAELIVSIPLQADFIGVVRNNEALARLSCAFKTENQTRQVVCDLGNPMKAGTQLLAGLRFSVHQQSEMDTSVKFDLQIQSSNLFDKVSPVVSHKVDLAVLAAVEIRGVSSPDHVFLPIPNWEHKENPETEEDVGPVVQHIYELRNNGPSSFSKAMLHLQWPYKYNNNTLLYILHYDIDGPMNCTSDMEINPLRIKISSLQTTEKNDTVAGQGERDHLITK
# T1 sequence (P06756 891-1048 partner limits assumed): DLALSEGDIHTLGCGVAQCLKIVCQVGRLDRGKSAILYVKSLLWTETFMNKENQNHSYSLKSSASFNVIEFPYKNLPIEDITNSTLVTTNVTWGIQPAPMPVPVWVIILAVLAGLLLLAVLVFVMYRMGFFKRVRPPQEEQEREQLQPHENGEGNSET
# T1 sequence (P05106 27-788): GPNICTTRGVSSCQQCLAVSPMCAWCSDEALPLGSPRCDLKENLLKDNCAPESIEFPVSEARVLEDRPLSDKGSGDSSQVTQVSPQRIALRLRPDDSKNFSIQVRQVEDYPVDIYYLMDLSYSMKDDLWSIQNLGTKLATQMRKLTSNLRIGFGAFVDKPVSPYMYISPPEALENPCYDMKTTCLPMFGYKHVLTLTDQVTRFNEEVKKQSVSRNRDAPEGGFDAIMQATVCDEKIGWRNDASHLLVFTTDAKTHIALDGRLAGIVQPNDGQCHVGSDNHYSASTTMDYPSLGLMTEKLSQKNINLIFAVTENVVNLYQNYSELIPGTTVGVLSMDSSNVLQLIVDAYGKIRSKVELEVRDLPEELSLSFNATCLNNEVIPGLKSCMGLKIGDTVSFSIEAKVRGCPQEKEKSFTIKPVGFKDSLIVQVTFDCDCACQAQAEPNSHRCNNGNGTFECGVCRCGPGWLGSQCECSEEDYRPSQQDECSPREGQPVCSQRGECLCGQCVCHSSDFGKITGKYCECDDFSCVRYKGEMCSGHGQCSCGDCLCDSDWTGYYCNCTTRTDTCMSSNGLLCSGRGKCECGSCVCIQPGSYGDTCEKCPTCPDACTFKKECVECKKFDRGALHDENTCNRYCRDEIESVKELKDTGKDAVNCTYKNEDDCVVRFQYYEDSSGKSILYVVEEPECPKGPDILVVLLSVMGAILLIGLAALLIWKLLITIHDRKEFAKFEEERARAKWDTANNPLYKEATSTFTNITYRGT
substance,measurement,setting,value
mPEG-SC20k-Ile-Val-Arg-Arg-Ala-Asp-Arg-Ala-Ala-Val-Pro-Gly-Gly-Gly-Gly-Arg-Gly-Asp ({mPEG‑SC20k}-IVRRADRAAVPGGGGRGD) [mPEG-SC20k-HM-3],inhibition of tumor growth compared with negative control,"[1]; 36.7 mg/kg, P<0.05",significant inhibition role
same,Rate of inhibiting tumors,"[1]; high, 36.7 mg/kg",50.40%*
same,Tumor weight,"[1]; high, 36.7 mg/kg",0.627 g
same,Rate of inhibiting tumors,[1]; [12],50.40%
same,Rate of inhibiting tumors,"[1]; intermediate, 18.75 mg/kg",44.62%
same,Tumor weight,"[1]; intermediate, 18.75 mg/kg",0.700 g
same,Rate of inhibiting tumors,[1]; [13],44.62%
same,Rate of inhibiting tumors,"[1]; low, 9.38 mg/kg",42.33%
same,Tumor weight,"[1]; low, 9.38 mg/kg",0.730 g
same,Rate of inhibiting tumors,[1]; [14],42.33%
same,inhibition of tumor growth compared with negative control,"[2]; 36.7 mg/kg, P<0.05",significant inhibition role
same,Rate of inhibiting tumors,"[2]; high, 36.7 mg/kg",55.11%*
same,Tumor weight,"[2]; high, 36.7 mg/kg",0.424 g
same,Rate of inhibiting tumors,[2]; [12],55.11%
same,Rate of inhibiting tumors,"[2]; intermediate, 18.75 mg/kg",46.95%
same,Tumor weight,"[2]; intermediate, 18.75 mg/kg",0.501 g
same,Rate of inhibiting tumors,[2]; [13],46.95%
same,Rate of inhibiting tumors,"[2]; low, 9.38 mg/kg",39.00%
same,Tumor weight,"[2]; low, 9.38 mg/kg",0.576 g
same,Rate of inhibiting tumors,[2]; [14],39.00%
same,CL,[3],0.118 mL/min/kg
same,inhibition of tumor growth compared with negative control,"[4]; 36.7 mg/kg, P<0.05",significant inhibition role
same,Rate of inhibiting tumors,"[4]; high, 36.7 mg/kg",62.24%*
same,Tumor weight,"[4]; high, 36.7 mg/kg",0.183 g
same,Rate of inhibiting tumors,[4]; [12],62.24%
same,Rate of inhibiting tumors,"[4]; intermediate, 18.75 mg/kg",55.66%
same,Tumor weight,"[4]; intermediate, 18.75 mg/kg",0.318 g
same,Rate of inhibiting tumors,[4]; [13],55.66%
same,Rate of inhibiting tumors,"[4]; low, 9.38 mg/kg",50.16%
same,Tumor weight,"[4]; low, 9.38 mg/kg",0.406 g
same,Rate of inhibiting tumors,[4]; [14],50.16%
same,binding to integrin ανβ3,integrin ανβ3,able to bind
same,binding to integrin α5β1,integrin α5β1,able to bind
same,inhibition of tumor growth compared with negative control,"[5]; 36.7 mg/kg, P<0.05",significant inhibition role
same,Rate of inhibiting tumors,"[5]; high, 36.7 mg/kg",67.76%*
same,Tumor weight,"[5]; high, 36.7 mg/kg",0.446 g
same,Rate of inhibiting tumors,[5]; [12],67.76%
same,Rate of inhibiting tumors,"[5]; intermediate, 18.75 mg/kg",64.55%
same,Tumor weight,"[5]; intermediate, 18.75 mg/kg",0.491 g
same,Rate of inhibiting tumors,[5]; [13],64.55%
same,Rate of inhibiting tumors,"[5]; low, 9.38 mg/kg",50.40%
same,Tumor weight,"[5]; low, 9.38 mg/kg",0.687 g
same,Rate of inhibiting tumors,[5]; [14],50.40%
same,inhibition of tumor growth compared with negative control,"[6]; 36.7 mg/kg, P<0.05",significant inhibition role
same,Rate of inhibiting tumors,"[6]; high, 36.7 mg/kg",62.47%*
same,Tumor weight,"[6]; high, 36.7 mg/kg",0.453 g
same,Rate of inhibiting tumors,[6]; [12],62.47%
same,Rate of inhibiting tumors,"[6]; intermediate, 18.75 mg/kg",53.65%
same,Tumor weight,"[6]; intermediate, 18.75 mg/kg",0.560 g
same,Rate of inhibiting tumors,[6]; [13],53.65%
same,Rate of inhibiting tumors,"[6]; low, 9.38 mg/kg",51.38%
same,Tumor weight,"[6]; low, 9.38 mg/kg",0.587 g
same,Rate of inhibiting tumors,[6]; [14],51.38%
same,t1/2β,"[7]; both, SD",20.13 h
same,t1/2p,[7],20.13 h
same,t1/2β,[7],20.13 h
same,inhibition of tumor growth compared with negative control,"[8]; 36.7 mg/kg, P<0.05",significant inhibition role
same,Rate of inhibiting tumors,"[8]; high, 36.7 mg/kg",63.42%*
same,Tumor weight,"[8]; high, 36.7 mg/kg",0.372 g
same,Rate of inhibiting tumors,[8]; [12],63.42%
same,Rate of inhibiting tumors,"[8]; intermediate, 18.75 mg/kg",54.24%
same,Tumor weight,"[8]; intermediate, 18.75 mg/kg",0.466 g
same,Rate of inhibiting tumors,[8]; [13],54.24%
same,Rate of inhibiting tumors,"[8]; low, 9.38 mg/kg",46.39%
same,Tumor weight,"[8]; low, 9.38 mg/kg",0.546 g
same,Rate of inhibiting tumors,[8]; [14],46.39%
same,inhibition of tumor growth compared with negative control,"[9]; 36.7 mg/kg, P<0.05",significant inhibition role
same,Rate of inhibiting tumors,"[9]; high, 36.7 mg/kg",60.20%*
same,Tumor weight,"[9]; high, 36.7 mg/kg",0.802 g
same,Rate of inhibiting tumors,[9]; [12],60.20%
same,Rate of inhibiting tumors,"[9]; intermediate, 18.75 mg/kg",51.32%
same,Tumor weight,"[9]; intermediate, 18.75 mg/kg",0.981 g
same,Rate of inhibiting tumors,[9]; [13],51.32%
same,Rate of inhibiting tumors,"[9]; low, 9.38 mg/kg",50.99%
same,Tumor weight,"[9]; low, 9.38 mg/kg",0.988 g
same,Rate of inhibiting tumors,[9]; [14],50.99%
same,inhibition of tumor growth compared with negative control,"[10]; 36.7 mg/kg, P<0.05",significant inhibition role
same,Rate of inhibiting tumors,"[10]; high, 36.7 mg/kg",55.98%*
same,Tumor weight,"[10]; high, 36.7 mg/kg",0.493 g
same,Rate of inhibiting tumors,[10]; [12],55.98%
same,Rate of inhibiting tumors,"[10]; intermediate, 18.75 mg/kg",45.45%
same,Tumor weight,"[10]; intermediate, 18.75 mg/kg",0.611 g
same,Rate of inhibiting tumors,[10]; [13],45.45%
same,Rate of inhibiting tumors,"[10]; low, 9.38 mg/kg",37.05%
same,Tumor weight,"[10]; low, 9.38 mg/kg",0.705 g
same,Rate of inhibiting tumors,[10]; [14],37.05%
same,inhibition of tumor growth compared with negative control,"[11]; 36.7 mg/kg, P<0.05",significant inhibition role
same,Rate of inhibiting tumors,"[11]; high, 36.7 mg/kg",61.45%*
same,Tumor weight,"[11]; high, 36.7 mg/kg",0.409 g
same,Rate of inhibiting tumors,[11]; [12],61.45%
same,Rate of inhibiting tumors,"[11]; intermediate, 18.75 mg/kg",50.59%
same,Tumor weight,"[11]; intermediate, 18.75 mg/kg",0.524 g
same,Rate of inhibiting tumors,[11]; [13],50.59%
same,Rate of inhibiting tumors,"[11]; low, 9.38 mg/kg",40.32%
same,Tumor weight,"[11]; low, 9.38 mg/kg",0.633 g
same,Rate of inhibiting tumors,[11]; [14],40.32%
